From US20260015358A1, “BICYCLIC DERIVATIVES, COMPOSITIONS AND USES THEREOF” (Danatlas Pharmaceuticals Co., Ltd., priority 2023, published 2026)

Assays:
[1] = target: T1, WRN [UniPro: Q14191 (WRN_HUMAN), N500-C946] (Homo sapiens (Human), UniProt Q14191); assay: WRN ATPase assay (ADP-Glo); format: biochemical; conditions: WRN enzymatic activity assay
[2] = target: T1, WRN [UniPro: Q14191 (WRN_HUMAN), N500-C946]; assay: WRN unwinding assay (FORKF DNA, fluorescence); format: biochemical; conditions: Table 14

T1 sequence (Q14191 500-946): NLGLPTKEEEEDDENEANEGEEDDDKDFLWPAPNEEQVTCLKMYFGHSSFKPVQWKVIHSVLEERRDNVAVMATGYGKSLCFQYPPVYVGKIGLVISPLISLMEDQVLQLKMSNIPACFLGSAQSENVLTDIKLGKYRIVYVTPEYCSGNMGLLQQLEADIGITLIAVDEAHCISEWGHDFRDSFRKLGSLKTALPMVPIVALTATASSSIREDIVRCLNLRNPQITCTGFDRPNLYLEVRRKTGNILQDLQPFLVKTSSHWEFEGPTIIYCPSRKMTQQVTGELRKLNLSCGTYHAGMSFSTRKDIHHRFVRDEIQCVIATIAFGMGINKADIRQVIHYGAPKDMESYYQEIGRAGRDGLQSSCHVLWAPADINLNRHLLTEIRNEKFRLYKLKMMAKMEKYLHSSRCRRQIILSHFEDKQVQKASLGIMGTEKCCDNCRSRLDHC

Q: Which results are given for `CCc1c(N2CCN(C(=O)CNC(=O)c3ccncc3)CC2)c(=O)n2nc(C3=CCOCC3)nc2n1CC(=O)Nc1ccc(C(F)(F)F)cc1Cl` [Example 96, N-(2-(4-(4-(2-((2-Chloro-4-(trifluoromethyl)phenyl)amino)-2-oxoethyl)-2-(3,6-dihydro-2H-pyran-4-yl)-5-ethyl-7-oxo-4,7-dihydro-[1,2,4]triazolo[1,5-a]pyrimidin-6-yl)piperazin-1-yl)-2-oxoethyl)isonicotinamide]?
A: IC50 [1]: < 100 nM; IC50 [2]: < 100 nM

Q: Which IC50 [1] does the source give for `CCc1c(N2CCN(C(=O)CNC(=O)c3ccc(F)c(N(C)C)c3)CC2)c(=O)n2nc(C3=CCOCC3)nc2n1CC(=O)Nc1ccc(C(F)(F)F)cc1Cl` [Example 286, N-(2-(4-(4-(2-((2-Chloro-4-(trifluoromethyl)phenyl)amino)-2-oxoethyl)-2-(3,6-dihydro-2H-pyran-4-yl)-5-ethyl-7-oxo-4,7-dihydro-[1,2,4]triazolo[1,5-a]pyrimidin-6-yl)piperazin-1-yl)-2-oxoethyl)-3-(dimethylamino)-4-fluorobenzamide] here?
A: < 100 nM

Q: What about the IC50 [2] of the same molecule?
A: < 100 nM

Q: For `CCc1c(N2CCN(C(=O)CNC(=O)c3ncc[nH]3)CC2)c(=O)n2nc(C3=CCOCC3)nc2n1CC(=O)Nc1ccc(C(F)(F)F)cc1Cl` [Example 106, N-(2-(4-(4-(2-((2-Chloro-4-(trifluoromethyl)phenyl)amino)-2-oxoethyl)-2-(3,6-dihydro-2H-pyran-4-yl)-5-ethyl-7-oxo-4,7-dihydro-[1,2,4]triazolo[1,5-a]pyrimidin-6-yl)piperazin-1-yl)-2-oxoethyl)-1H-imidazole-2-carboxamide], which IC50 [1] is on record?
A: 100 to 1000 nM

Q: And the IC50 [2]?
A: < 100 nM

Q: Which IC50 [1] does the source give for `CCc1c(N2CCN(C(=O)CNC(=O)c3cc(NC)c(F)cc3F)CC2)c(=O)n2nc(C3=CCOCC3)nc2n1CC(=O)Nc1ccc(C(F)(F)F)cc1F` [Example 213, N-(2-(4-(2-(3,6-Dihydro-2H-pyran-4-yl)-5-ethyl-4-(2-((2-fluoro-4-(trifluoromethyl)phenyl)amino)-2-oxoethyl)-7-oxo-4,7-dihydro-[1,2,4]triazolo[1,5-a]pyrimidin-6-yl)piperazin-1-yl)-2-oxoethyl)-2,4-difluoro-5-(methylamino)benzamide] here?
A: < 100 nM

Q: And the IC50 [2]?
A: < 100 nM

Q: For `CCc1c(N2CCN(C(=O)CNC(=O)c3ccc(F)c(O)c3)CC2)c(=O)n2nc(C3=CCOCC3)nc2n1CC(=O)Nc1ccc(C(F)(F)F)cc1Cl` [Example 292, N-(2-(4-(4-(2-((2-Chloro-4-(trifluoromethyl)phenyl)amino)-2-oxoethyl)-2-(3,6-dihydro-2H-pyran-4-yl)-5-ethyl-7-oxo-4,7-dihydro-[1,2,4]triazolo[1,5-a]pyrimidin-6-yl)piperazin-1-yl)-2-oxoethyl)-4-fluoro-3-hydroxybenzamide], which IC50 [1] is on record?
A: < 100 nM

Q: What about the IC50 [2] of the same molecule?
A: < 100 nM

Q: What does the source list for `CCc1c(N2CCN(C(=O)CNC(=O)CC(C)C)CC2)c(=O)n2nc(C3=CCOCC3)nc2n1CC(=O)Nc1ccc(C(F)(F)F)cc1Cl` [Example 320, N-(2-(4-(4-(2-((2-Chloro-4-(Trifluoromethyl)phenyl)amino)-2-oxoethyl)-2-(3,6-dihydro-2H-pyran-4-yl)-5-ethyl-7-oxo-4,7-dihydro-[1,2,4]triazolo[1,5-a]pyrimidin-6-yl)piperazin-1-yl)-2-oxoethyl)-3-methylbutanamide]?
A: IC50 [1]: < 100 nM; IC50 [2]: < 100 nM

Q: With `CCc1c(N2CCN(C(=O)CNC(=O)c3ccccc3F)CC2)c(=O)n2nc(C3=CCOCC3)nc2n1CC(=O)Nc1ccc(F)cc1F` [Example 150, N-(2-(4-(4-(2-((2,4-Difluorophenyl)amino)-2-oxoethyl)-2-(3,6-dihydro-2H-pyran-4-yl)-5-ethyl-7-oxo-4,7-dihydro-[1,2,4]triazolo[1,5-a]pyrimidin-6-yl)piperazin-1-yl)-2-oxoethyl)-2-fluorobenzamide] as the molecule, how does the IC50 [1] read?
A: < 100 nM

Q: What about the IC50 [2] of the same molecule?
A: < 100 nM

Q: What does the source list for `CCc1c(N2CCN(C(=O)CNC(=O)c3ccccc3)CC2)c(=O)n2nc(N3CC4COCC4C3)nc2n1CC(=O)Nc1ccc(C(F)(F)F)cc1Cl` (centres unmarked) [Example 233, N-(2-(4-(4-(2-((2-Chloro-4-(trifluoromethyl)phenyl)amino)-2-oxoethyl)-5-ethyl-7-oxo-2-(tetrahydro-1H-furo[3,4-c]pyrrol-5 (3H)-yl)-4,7-dihydro-[1,2,4]triazolo[1,5-a]pyrimidin-6-yl)piperazin-1-yl)-2-oxoethyl)benzamide]?
A: IC50 [1]: < 100 nM; IC50 [2]: < 100 nM

Q: For `CCc1c(N2CCN(C(=O)C(=O)Nc3nc(C)co3)CC2)c(=O)n2nc(C3=CCOCC3)nc2n1CC(=O)Nc1ccc(C(F)(F)F)cc1Cl` [Example 353, 2-(4-(4-(2-((2-Chloro-4-(trifluoromethyl)phenyl)amino)-2-oxoethyl)-2-(3,6-dihydro-2H-pyran-4-yl)-5-ethyl-7-oxo-4,7-dihydro-[1,2,4]triazolo[1,5-a]pyrimidin-6-yl)piperazin-1-yl)-N-(4-methyloxazol-2-yl)-2-oxoacetamide], which IC50 [1] is on record?
A: < 100 nM

Q: And the IC50 [2]?
A: < 100 nM

Q: Which results are given for `CCc1c(N2CCN(C(=O)CNC(=O)[C@@H]3CCCO3)CC2)c(=O)n2nc(C3=CCOCC3)nc2n1CC(=O)Nc1ccc(C(F)(F)F)cc1Cl` [Example 322, (S)—N-(2-(4-(4-(2-((2-Chloro-4-(trifluoromethyl)phenyl)amino)-2-oxoethyl)-2-(3,6-dihydro-2H-pyran-4-yl)-5-ethyl-7-oxo-4,7-dihydro-[1,2,4]triazolo[1,5-a]pyrimidin-6-yl)piperazin-1-yl)-2-oxoethyl)tetrahydrofuran-2-carboxamide]?
A: IC50 [1]: < 100 nM; IC50 [2]: < 100 nM

Q: How did the IC50 [1] turn out when `CCc1c(N2CCN(C(=O)c3nnccc3O)CC2)c(=O)n2nc(C3=CCOCC3)nc2n1CC(=O)Nc1ccc(C(F)(F)F)cc1Cl` [Example 82, N-(2-Chloro-4-(trifluoromethyl)phenyl)-2-(2-(3,6-dihydro-2H-pyran-4-yl)-5-ethyl-6-(4-(4-hydroxypyridazine-3-carbonyl)piperazin-1-yl)-7-oxo-[1,2,4]triazolo[1,5-a]pyrimidin-4(7H)-yl)acetamide] was run?
A: < 100 nM

Q: What about the IC50 [2] of the same molecule?
A: < 100 nM

Q: How did the IC50 [1] turn out when `CCc1c(N2CCN(C(=O)C(=O)Nc3ccno3)CC2)c(=O)n2nc(C3=CCOCC3)nc2n1CC(=O)Nc1ccc(C(F)(F)F)cc1F` [Example 341, 2-(4-(2-(3,6-Dihydro-2H-pyran-4-yl)-5-ethyl-4-(2-((2-fluoro-4-(trifluoromethyl)phenyl)amino)-2-oxoethyl)-7-oxo-4,7-dihydro-[1,2,4]triazolo[1,5-a]pyrimidin-6-yl)piperazin-1-yl)-N-(isoxazol-5-yl)-2-oxoacetamide] was run?
A: < 100 nM

Q: And the IC50 [2]?
A: < 100 nM

Q: With `CCc1c(N2CCN(C(=O)CNC(=O)c3ccc(F)c(F)c3)CC2)c(=O)n2nc(C3=CCOCC3)nc2n1CC(=O)Nc1ccc(C(F)(F)F)cc1Cl` [Example 132, N-(2-(4-(4-(2-((2-Chloro-4-(trifluoromethyl)phenyl)amino)-2-oxoethyl)-2-(3,6-dihydro-2H-pyran-4-yl)-5-ethyl-7-oxo-4,7-dihydro-[1,2,4]triazolo[1,5-a]pyrimidin-6-yl)piperazin-1-yl)-2-oxoethyl)-3,4-difluorobenzamide] as the molecule, how does the IC50 [1] read?
A: < 100 nM

Q: What about the IC50 [2] of the same molecule?
A: < 100 nM

Q: Which IC50 [1] does the source give for `CCc1c(N2CCN(C(=O)CNC(=O)c3cc(NC)ccc3F)CC2)c(=O)n2nc(C3=CCOCC3)nc2n1CC(=O)Nc1ccc(C(F)(F)F)cc1Cl` [Example 289, N-(2-(4-(4-(2-((2-Chloro-4-(trifluoromethyl)phenyl)amino)-2-oxoethyl)-2-(3,6-dihydro-2H-pyran-4-yl)-5-ethyl-7-oxo-4,7-dihydro-[1,2,4]triazolo[1,5-a]pyrimidin-6-yl)piperazin-1-yl)-2-oxoethyl)-2-fluoro-5-(methylamino)benzamide] here?
A: < 100 nM

Q: And the IC50 [2]?
A: < 100 nM

Q: Which IC50 [1] does the source give for `CCc1c(N2CCN(C(=O)CNC(=O)c3ccccc3F)CC2)c(=O)n2nc(C3=CCOCC3)nc2n1CC(=O)Nc1ccc(C(F)(F)F)cc1C` [Example 147, N-(2-(4-(2-(3,6-Dihydro-2H-pyran-4-yl)-5-ethyl-4-(2-((2-methyl-4-(trifluoromethyl)phenyl)amino)-2-oxoethyl)-7-oxo-4,7-dihydro-[1,2,4]triazolo[1,5-a]pyrimidin-6-yl)piperazin-1-yl)-2-oxoethyl)-2-fluorobenzamide] here?
A: < 100 nM

Q: What about the IC50 [2] of the same molecule?
A: < 100 nM

Q: With `CCc1c(N2CCN(C(=O)CNC(=O)c3ncco3)CC2)c(=O)n2nc(N3CCCOCC3)nc2n1CC(=O)Nc1ccc(C(F)(F)F)cc1F` [Example 257, N-(2-(4-(5-Ethyl-4-(2-((2-fluoro-4-(trifluoromethyl)phenyl)amino)-2-oxoethyl)-2-(1,4-oxazepan-4-yl)-7-oxo-4,7-dihydro-[1,2,4]triazolo[1,5-a]pyrimidin-6-yl)piperazin-1-yl)-2-oxoethyl)oxazole-2-carboxamide] as the molecule, how does the IC50 [1] read?
A: 100 to 1000 nM

Q: What about the IC50 [2] of the same molecule?
A: 100 to 1000 nM

Q: With `CCc1c(N2CCN(C(=O)c3nccc4[nH]ccc34)CC2)c(=O)n2nc(C3=CCOCC3)nc2n1CC(=O)Nc1ccc(Cl)cc1C(F)(F)F` [Example 67, 2-(6-(4-(1H-Pyrrolo[3,2-c]pyridine-4-carbonyl)piperazin-1-yl)-2-(3,6-dihydro-2H-pyran-4-yl)-5-ethyl-7-oxo-[1,2,4]triazolo[1,5-a]pyrimidin-4(7H)-yl)-N-(4-chloro-2-(trifluoromethyl)phenyl)acetamide] as the molecule, how does the IC50 [1] read?
A: < 100 nM

Q: What about the IC50 [2] of the same molecule?
A: < 100 nM

Q: Which results are given for `CCc1c(N2CCN(C(=O)C(=O)Nc3cc(C)ns3)CC2)c(=O)n2nc(C3=CCOCC3)nc2n1CC(=O)Nc1ccc(C(F)(F)F)cc1F` [Example 325, 2-(4-(2-(3,6-Dihydro-2H-pyran-4-yl)-5-ethyl-4-(2-((2-fluoro-4-(trifluoromethyl)phenyl)amino)-2-oxoethyl)-7-oxo-4,7-dihydro-[1,2,4]triazolo[1,5-a]pyrimidin-6-yl)piperazin-1-yl)-N-(3-methylisothiazol-5-yl)-2-oxoacetamide]?
A: IC50 [1]: < 100 nM; IC50 [2]: < 100 nM

Q: Which IC50 [1] does the source give for `CCc1c(N2CCN(C(=O)CNC(=O)c3ncnc(C)c3O)CC2)c(=O)n2nc(N3CCOCC3)nc2n1CC(=O)Nc1ccc(C(F)(F)F)cc1Cl` [Example 377, N-(2-(4-(4-(2-((2-Chloro-4-(trifluoromethyl)phenyl)amino)-2-oxoethyl)-5-ethyl-2-morpholino-7-oxo-4,7-dihydro-[1,2,4]triazolo[1,5-a]pyrimidin-6-yl)piperazin-1-yl)-2-oxoethyl)-5-hydroxy-6-methylpyrimidine-4-carboxamide] here?
A: < 100 nM

Q: And the IC50 [2]?
A: < 100 nM
